Experimental findings from US7678812B2, “Aminotetralin-derived urea modulators of vanilloid VR1 receptor” (Janssen Pharmaceutica NV, priority 2002, dated 2010) are described below.

By pKi is commonly meant −log10 of the Ki, conventionally taken in molar units. Read a high pKi as a low Ki. For orientation: ED50 means the dose at which the effect has come halfway, by size or by number of responders.

One assay addresses Rat VR1 (Rattus norvegicus, UniProt O35433). In words: [3H]-RTX binding assay using rat tissue (spinal cord). On the set-up: Rat spinal cord was homogenized twice with a Polytron; from tissue; host or cells: rat spinal cord membranes. To be noted: rat spinal cord membranes. How it is done: Alternatively, a binding assay using rat tissue was used. Rat spinal cord was homogenized twice with a Polytron and centrifuged at 3000 rpm for 10 min in HEPES buffer containing 20 mM HEPES, pH 7.4, NaCl 5.8 mM, sucrose 320 mM, MgCl2 2 mM, CaCl2 0.75 mM and KCl 5 mM. The supernatant was then centrifuged at 18,000 rpm for 20 min. The pellet was saved in a tube and 10 ml assay buffer was added into the tube. The pellet and buffer were mixed with a Polytron. The assay contained 120 μg/ml membrane protein and 0.3-0.6 nM [^3H]-RTX (NEN, Boston) in a total volume of 0.5 ml HEPES buffer. Following-incubation for 60 min at 37 C, the samples were cooled down on ice, and 100 mg of α-acid glycoprotein were added into the samples. After centrifugation at 13,000 rpm for 15 min, the supernatant was aspirated and the tips of tubes were cut off and placed into 6 ml vials. Data were calculated according to the equation: % inhibition=(total binding−binding)*100/(total binding−non specific binding). Ki value values were calculated using a Prism program.

In assay [1] the test system is carrageenan paw-induced thermal hyperalgesia. In words: Carrageenan paw-induced thermal hyperalgesia. As to conditions: for % Recovery: at 1 mg/ml; for ED50: Rattus norvegicus, po. Type of assay: in vivo, rat. How it is done: Each rat was placed on a heated surface (51° C.) in order to measure the time necessary to elicit a response, and an initial (baseline) response time to a thermal stimuli was recorded for each animal. A response is defined as any shaking, licking, or tucking of the treated paw or jumping. Animals not treated with a test compound respond in approximately 20 seconds. The maximal exposure time permitted is 60 seconds to prevent tissue damage. Rats were injected with an irritant (e.g., 1% carrageenan solution in 0.9% saline) subcutaneously into the sub-plantar tissue of the left hind paw to stimulate an acute inflammatory reaction.
Two hours later, the response time of the animal to the thermal stimulus was evaluated and compared to the animal's baseline response time. This shorter response time was recorded as percent hyperalgesia (% H). A cut-off value for % H (usually 75%) was used during analysis to ensure that the animals were hyperalgesic. Animals were then dosed with test drug or vehicle.
At some time(s) later (typically 45 and 90 minutes), the response time of the animal to the thermal stimulus was again evaluated. For each time point, a percent reversal of hyperalgesia (% R) was calculated using the following formula: % R=(Drug Latency−Carrageenan latency)/(Baseline latency−Carrageenan latency). ED50 values were calculated from % R obtained at several drug doses.
On the technique in general: The carrageenan paw model is a standard test of acute inflammation.

Assay [2] concerns the target T1, hVR1 receptors (Homo sapiens, UniProt Q8NER1). In words: [3H] RTX binding assay, human VR1. On the set-up: expressed in transfected cells; host or cells: HEK293 (membrane preparation). To be noted: inhibition of [3H] RTX binding, membranes of HEK293 cells transfected with human VR1. How it is done:
Compounds of the present invention were tested for their ability to inhibit the binding of [^3H] RTX to hVR1 receptors in a [^3H] RTX binding assay as previously described (Zhang, Sui-Po. Improved ligand binding assays for vanilloid receptors. PCT Int. Appl. (2002), 29 pp. CODEN: PIXXD2 WO 0233411 A1 20020425 AN 2002:315209; Grant, Elfrida R.; Dubin, Adrienne E.; Zhang, Sui-Po; Zivin, Robert A.; Zhong, Zhong Simultaneous intracellular calcium and sodium flux imaging in human vanilloid receptor 1 (VR1)-transfected human embryonic kidney cells: a method to resolve ionic dependence of VR1-mediated cell death. Journal of Pharmacology and Experimental Therapeutics (2002), 300(1), 9-17.)
HEK293 cells were transfected with human VR1 vanilloid receptors and washed with Hank's Balanced Salt Solution, dissociated with cell dissociation buffer (Sigma), and then centrifuged at 1000×g for 5 min. Cell pellets were homogenized in cold 20 mM HEPES buffer, pH 7.4, containing 5.8 mM NaCl, 320 mM sucrose, 2 mM MgCl2, 0.75 CaCl2 and 5 mM KCl and centrifuged at 1000×g for 15 min. The resultant supernate was then centrifuged at 40000×g for 15 min. The pelleted membranes were kept in an −80° C. freezer.
Approximately 120 μg protein/ml from membranes were incubated with indicated concentrations of [^3H] RTX in 0.5 ml of the HEPES buffer (pH 7.4) containing 0.25 mg/mL fatty acid-free bovine serum albumin at 37° C. for 60 min. The reaction mixture was then cooled to 4° C., 0.1 mg α1-acid glycoprotein added to each sample and incubated at 4° C. for 15 min. The samples were centrifuged at 18500×g for 15 min. The tip of the microcentrifuge tube containing the pellet was cut off. Bound radioactivity was quantified by scintillation counting. Non-specific binding was tested in the presence of 200 nM unlabeled RTX.

Assay [3] concerns the target T2, VR1 expressed endogenously on small rat dorsal root ganglion (DRG) neurons (Rattus norvegicus, UniProt O35433).
T2 construct: VR1 expressed endogenously on small rat dorsal root ganglion (DRG) neurons; endogenous in cells; host or cells: dissociated DRG neurons from normal rats
The experiment in a line: Electrophysiologic functional assay using dissociated rat DRG cells (whole cell patch clamp). Type of assay: cell-based. As to conditions: for inhibition of the response to 1 uM capsaicin: capsaicin-induced currents in rat DRG neurons; for % of the initial CAP response in presence of 1 uM CAP / % of the initial CAP response in presence of 10 uM CAP: initial response to 0.3 uM capsaicin. As to the method: Compounds 42, 95, 101, 105 and 106 were tested for their activity on VR1 expressed endogenously on small rat dorsal root ganglion (DRG) neurons. DRG neurons from normal rats were dissociated (see methods in Chaplan et al., 2003) and whole cell currents mediated by VR1 were recorded using the whole cell patch clamp technique. […] This was followed by application of 10 μM CAP in the presence of compound. […] The ability of 1 and 10 μM CAP to cause an increased current after exposure to a compound of the invention was compared to controls.

For assay [4], the target named is T1, hVR1 receptors. In words: Broadly stimulated recombinant human VR1 functional assay (Ca2+ influx, FLIPR). Type of assay: cell-based. On the set-up: expressed in transfected cells; host or cells: HEK293.
Setting [5] is: reversal of hyperalgesia, read-out: CgHP ED50.

pIC50, pKi: −log10 of the molar value. Read-outs that look alike come from different tables or passages of the source.

T2 sequence (O35433 whole entry): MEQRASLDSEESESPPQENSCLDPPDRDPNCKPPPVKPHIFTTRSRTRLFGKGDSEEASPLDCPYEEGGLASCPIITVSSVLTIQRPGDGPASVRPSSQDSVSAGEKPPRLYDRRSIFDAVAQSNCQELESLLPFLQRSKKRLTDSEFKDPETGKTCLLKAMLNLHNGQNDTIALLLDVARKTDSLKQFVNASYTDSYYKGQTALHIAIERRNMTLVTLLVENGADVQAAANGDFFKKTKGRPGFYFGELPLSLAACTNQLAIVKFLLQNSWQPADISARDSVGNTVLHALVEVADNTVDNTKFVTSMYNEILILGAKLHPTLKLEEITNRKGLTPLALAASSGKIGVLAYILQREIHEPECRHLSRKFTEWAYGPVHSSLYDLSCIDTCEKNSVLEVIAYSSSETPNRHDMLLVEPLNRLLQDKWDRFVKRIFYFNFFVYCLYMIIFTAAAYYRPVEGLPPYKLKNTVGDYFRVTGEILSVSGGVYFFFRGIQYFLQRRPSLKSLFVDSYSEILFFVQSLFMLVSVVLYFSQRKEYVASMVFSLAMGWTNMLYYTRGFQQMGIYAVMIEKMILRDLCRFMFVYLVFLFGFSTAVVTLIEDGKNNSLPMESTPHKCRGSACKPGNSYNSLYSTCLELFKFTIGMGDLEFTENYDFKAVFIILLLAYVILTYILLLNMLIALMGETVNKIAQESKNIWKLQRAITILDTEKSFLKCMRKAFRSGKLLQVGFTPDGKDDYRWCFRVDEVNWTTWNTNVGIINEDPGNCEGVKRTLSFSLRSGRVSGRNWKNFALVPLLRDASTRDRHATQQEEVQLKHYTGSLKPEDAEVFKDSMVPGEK
Sequence of Rat VR1 (O35433 whole entry): as above
T1 sequence (Q8NER1 whole entry): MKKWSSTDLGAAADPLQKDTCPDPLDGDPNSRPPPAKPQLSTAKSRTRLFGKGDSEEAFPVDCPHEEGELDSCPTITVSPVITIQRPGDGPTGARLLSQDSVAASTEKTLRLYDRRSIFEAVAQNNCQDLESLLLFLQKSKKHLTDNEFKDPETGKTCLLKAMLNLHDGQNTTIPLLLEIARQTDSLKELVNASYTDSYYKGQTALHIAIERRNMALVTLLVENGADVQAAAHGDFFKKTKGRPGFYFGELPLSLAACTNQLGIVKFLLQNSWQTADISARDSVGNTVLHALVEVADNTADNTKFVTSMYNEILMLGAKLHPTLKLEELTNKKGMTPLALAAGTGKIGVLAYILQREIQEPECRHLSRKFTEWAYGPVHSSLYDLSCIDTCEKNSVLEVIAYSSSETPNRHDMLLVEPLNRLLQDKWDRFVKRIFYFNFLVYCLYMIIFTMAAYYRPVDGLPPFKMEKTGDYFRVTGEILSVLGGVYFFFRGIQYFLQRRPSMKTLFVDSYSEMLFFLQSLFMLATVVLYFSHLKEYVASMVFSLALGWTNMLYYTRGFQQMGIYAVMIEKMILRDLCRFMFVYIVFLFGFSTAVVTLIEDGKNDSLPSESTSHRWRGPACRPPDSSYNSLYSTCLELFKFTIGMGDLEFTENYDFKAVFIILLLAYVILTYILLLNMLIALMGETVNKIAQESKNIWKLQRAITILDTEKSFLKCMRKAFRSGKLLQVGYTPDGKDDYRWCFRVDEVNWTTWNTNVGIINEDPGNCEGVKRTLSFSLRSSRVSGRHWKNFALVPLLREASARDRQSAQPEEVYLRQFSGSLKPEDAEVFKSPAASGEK

As to `O=C(Nc1cccc2cnccc12)NC1CCc2cc(F)ccc2C1Cc1cccc(C(F)(F)F)c1` (racemic) [Compound 110], the pKi at Rat VR1 was 6.73; at hVR1 receptors [2], 9.27. Also, the “% Recovery” value in assay [1] (at 90 min) came to 64.3%.
Take `O=C(Nc1cccc2cnccc12)N[C@@H]1CCc2cc(F)ccc2[C@@H]1Cc1ccoc1` (relative stereo) [Compound 88]: the negative logarithm of the Ki (pKi) on Rat VR1 is 5.90; at hVR1 receptors [2] it was 7.81.
`COc1ccc2c(c1)CC[C@@H](NC(=O)Nc1cccc3cnccc13)[C@H]2Cc1ccc(F)cc1F` (relative stereo) [Compound 90] had a pKi on Rat VR1 of 6.59.
Same read-out and setting: the value for `COc1ccc2c(c1)CC[C@@H](NC(=O)Nc1cccc3cnccc13)[C@@H]2Cc1ccc(F)cc1F` (relative stereo) [Compound 91] was 5.83.
Take `Cc1cc2c(NC(=O)NC3CCc4cc(F)ccc4C3Cc3ccccc3)cccc2cn1` (single isomer, unassigned) [Compound 100]: the pKi was 6.11 on Rat VR1 and 8.28 at hVR1 receptors [2].
`Cc1cc2c(NC(=O)NC3CCc4cc(F)ccc4C3Cc3ccccc3)cccc2cn1` (single isomer, unassigned) [Compound 101]: the values for the pKi on Rat VR1 and on hVR1 receptors [2] were 7.27 and 8.95, respectively. For the same molecule, in assay [3], the “inhibition of the response to 1 uM capsaicin” value is reported as “dose dependent”. The results for the “% of the initial CAP response in presence of 1 uM CAP” value in assay [3] (compound concentration 0.03 uM) and in assay [3] (compound concentration 0.1 uM) were 14% and 0%, respectively. For the same molecule, the “% of the initial CAP response in presence of 10 uM CAP” value in assay [3] (compound concentration 0.03 uM) amounted to 54%; in assay [3] (compound concentration 0.1 uM) it was 0%.
In the case of `O=C(Nc1cccc2cnccc12)NC1CCc2cc(F)ccc2C1Cc1cccc(C(F)(F)F)c1` (single isomer, unassigned) [Compound 118], the results for the pKi at Rat VR1 and on hVR1 receptors [2] were 6.77 and 8.67, respectively.
With `O=C(Nc1cccc2cnccc12)NC1CCc2cc(F)ccc2C1Cc1cccc(C(F)(F)F)c1` (single isomer, unassigned) [Compound 119], the pKi at Rat VR1 is 6.82; at hVR1 receptors [2], 9.30.
On to `O=C(Nc1cccc2c[n+]([O-])ccc12)NC1CCc2cc(F)ccc2C1Cc1cccc(C(F)(F)F)c1` (single isomer, unassigned) [Compound 120], for which the negative-log Ki (pKi) at Rat VR1 was 5.00; on hVR1 receptors [2], 7.02. In addition, the “% Recovery” value in assay [1] (at 90 min) amounted to 83.0%.
On the same counts, the results for `O=C(Nc1cccc2c[n+]([O-])ccc12)NC1CCc2cc(F)ccc2C1Cc1cccc(C(F)(F)F)c1` (single isomer, unassigned) [Compound 121] are 7.05, 8.24 and 80.1%.
As for `Oc1cc2c(cc1O)CN(C(=S)NCCc1ccc(Cl)cc1)CCC2` [Capsazepine, capsazepine, reference compound], the pIC50 at hVR1 receptors [4] (human recombinant receptor, FIG. 1, read-out: potency to inhibit Ca2+ activity induced by the panel of stimuli) is 6.52 to 7.00.
In the case of `COCOc1ccc(CNC(=S)NC2CCc3ccccc3C2Cc2cccnc2)cc1OC` (stereo not drawn) [Compound 4], the ED50 in assay [1] (setting [5]) is 0.804 mg/kg.
The same measure, in the same setting: as for `COc1ccc2c(c1)CCC(NC(=S)NCCc1ccc(Cl)cc1)C2Cc1ccccc1` (stereo not drawn) [Compound 17], the figure is 20 mg/kg.
On to `O=C(Nc1cccc2cnccc12)NC1CCc2c(Cl)cccc2C1Cc1ccccc1` (stereo not drawn) [Compound 42], for which, in assay [3] (compound concentration 0.3 uM), the “% of the initial CAP response in presence of 1 uM CAP” value is given as 0%. On hVR1 receptors [2], this molecule showed a pKi of 8.71.
On to `C=CCC1c2ccccc2CCC1NC(=O)Nc1cccc2cnccc12` (stereo not drawn) [Compound 57], for which the ED50 in assay [1] (setting [5]) amounted to 0.354 mg/kg. The same molecule showed a pKi at hVR1 receptors [2] of 7.81.
Take `COc1ccc(CC2c3ccc(OC)cc3CCC2NC(=O)Nc2cccc3cnccc23)cc1` (stereo not drawn) [Compound 72]: the negative logarithm of the Ki (pKi) at hVR1 receptors [2] was 8.12.
On the same count and under the same terms, the value for `COc1ccc2c(c1)CCC(NC(=O)Nc1cccc3cnccc13)C2Cc1ccccc1OC` (stereo not drawn) [Compound 73] was 7.27; that for `COc1ccc2c(c1)CCC(NC(=O)Nc1cccc3cnccc13)C2Cc1ccc(OCc2ccccc2)cc1` (stereo not drawn) [Compound 74] was 7.95.
Same read-out and setting: the value for `O=C(Nc1cccc2cnccc12)NC1CCc2cc(F)ccc2C1Cc1cccs1` (stereo not drawn) [Compound 76] was 8.42.
Still for that read-out and setting: as for `COc1ccc2c(c1)CCC(NC(=O)Nc1cccc3cnccc13)C2Cc1c(F)cccc1F` (stereo not drawn) [Compound 77], the figure is 8.20; as for `O=C(Nc1cccc2cnccc12)NC1CCc2cc(Cl)ccc2C1Cc1ccccc1` (stereo not drawn) [Compound 86], 8.77.
As for `COc1ccc2c(c1)CCC(NC(=O)Nc1cccc3cnccc13)C2Cc1ccsc1` (stereo not drawn) [Compound 89], on Rat VR1, the pKi is 5.97.
`O=C(Nc1cccc2cnccc12)NC1CCc2cc(Cl)ccc2C1Cc1ccccc1` (stereo not drawn) [Compound 95] gave a pKi on Rat VR1 of 6.66. Besides, the “inhibition of the response to 1 uM capsaicin” value in assay [3] is reported as “dose dependent”. In assay [3] (compound concentration 0.03 uM), the “% of the initial CAP response in presence of 1 uM CAP” value is 78% and the “% of the initial CAP response in presence of 10 uM CAP” value amounted to 1073%. Moreover, the pKi on hVR1 receptors [2] is 8.77.
Take `O=C(Nc1cccc2cncc(Cl)c12)NC1CCc2cc(F)ccc2C1Cc1ccccc1` (stereo not drawn) [Compound 99]: the pKi on hVR1 receptors [2] is 5.57.
For the molecule `O=C(Nc1cccc2cnccc12)NC1CCc2cc(F)ccc2C1Cc1ccc(C(F)(F)F)cc1` (stereo not drawn) [Compound 107], the values for the pKi on Rat VR1 and on hVR1 receptors [2] were 7.54 and 9.03, respectively. Besides, the ED50 in assay [1] (1.5 h, p.o., at 90 min, read-out: ED50) is 0.92 mg/kg.
`O=C(Nc1cccc2c(Cl)nc(Cl)cc12)NC1CCc2cc(F)ccc2C1Cc1ccccc1` (stereo not drawn) [Compound 108] showed a negative-log Ki (pKi) on hVR1 receptors [2] of 6.73.
On the same count and under the same terms, as for `O=C(Nc1cccc2c(Cl)nc(Cl)cc12)NC1CCc2cc(F)ccc2C1Cc1ccccc1` (stereo not drawn) [Compound 109], the figure is 7.53.
As for `O=C(Nc1cccc2cnccc12)NC1CCc2ccccc2C12Cc1ccccc1C2` (stereo not drawn) [Compound 122, Spiro{indan-2,1′-(1′,2′,3′,4′-tetrahydronaphthalene)-2′-yl}-3-isoquinolin-5-yl-urea], the negative-log Ki (pKi) at Rat VR1 is 5.77; at hVR1 receptors [2], 7.14.
`OO` [Compound H2O2, H2O2, reference compound]: the “EC80 for H2O2-induced Ca2+ flux” value on hVR1 receptors [4] (VR1/HEK cells, species not stated) worked out at 0.015 % H2O2.
